Measured values: PubChem BioAssay (NCI)
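Test compounds were applied to cells in 96-well plates for 48 hours at 5 doses. GI50 is the concentration that inhibits growth by half. At the TGI there is no net growth.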

What was measured:
Assay in all cases: NCI tumour cell line growth inhibition, 48 h
BT-549 breast = test system: BT-549 breast
HT29 colon = test system: HT29 colon
MDA-MB-435 = test system: MDA-MB-435
SNB-75 CNS = test system: SNB-75 CNS
COLO 205 colon = test system: COLO 205 colon
EKVX NSCLC = test system: EKVX NSCLC
MALME-3M melanoma = test system: MALME-3M melanoma
SF-268 CNS = test system: SF-268 CNS
MCF7 breast = test system: MCF7 breast
UO-31 renal = test system: UO-31 renal

SMILES	TGI (BT-549 breast) [µM]	TGI (HT29 colon) [µM]	TGI (MDA-MB-435) [µM]	TGI (SNB-75 CNS) [µM]	TGI (COLO 205 colon) [µM]	TGI (EKVX NSCLC) [µM]	TGI (MALME-3M melanoma) [µM]	TGI (SF-268 CNS) [µM]	TGI (MCF7 breast) [µM]	TGI (UO-31 renal) [µM]	GI50 (BT-549 breast) [µM]	GI50 (HT29 colon) [µM]	GI50 (MDA-MB-435) [µM]	GI50 (SNB-75 CNS) [µM]	GI50 (COLO 205 colon) [µM]	GI50 (EKVX NSCLC) [µM]	GI50 (MALME-3M melanoma) [µM]	GI50 (SF-268 CNS) [µM]	GI50 (MCF7 breast) [µM]	GI50 (UO-31 renal) [µM]
CS(=O)(=O)CC(=O)c1ccccc1	> 100	> 100	> 100	> 100	> 100	> 100	> 100	> 100	> 100	> 100	–	–	–	–	–	–	–	–	–	–
O=C1OCC2=C1C(c1ccc(Cl)c(Cl)c1)c1cc3c(cc1N2CCO)CCC3 (stereo unspecified)	10.9	0.646	0.183	11.7	0.702	15.6	16.4	9.34	7.2	21.2	1.35	0.164	0.0611	0.134	0.175	0.435	0.193	0.343	0.157	0.237
O=c1ssc(Cl)c1Cl	> 10	> 10	> 10	> 10	4.32	> 10	9.77	> 10	> 10	> 6.86	–	–	–	–	–	–	–	–	–	–
O=c1oc2ccc(Br)cc2c(=O)n1-c1ccc(I)cc1F	1.39	12.5	3.82	1.36	15.1	5.73	1.27	4.82	5.87	1.22	0.341	3.31	0.409	0.219	3.97	0.594	0.32	0.383	0.709	0.24
COc1cc(C(=O)N/N=C/c2ccc(N(C)C)cc2)cc(OC)c1OC	> 26.7	–	0.307	> 100	1.64	> 100	> 100	> 100	> 100	> 100	0.696	0.347	0.0743	0.152	0.406	> 100	0.582	1.12	0.34	0.656
CCCCCCCCn1ccc2cc(NC(=O)Cn3cc(CN4CCCCC4)nn3)ccc21	23.2	4.28	3.15	2.96	3.68	13.9	3	4.51	4.29	2.62	10.2	2.02	1.68	1.51	1.84	2.89	1.58	2.05	1.85	1.34
CC(=O)OC12COC1CC(O)C1(C)C(=O)C(O)C3=C(C)C(O)CC(O)(C(OC(=O)c4ccccc4)C21)C3(C)C (stereo unspecified)	> 100	> 44.8	1.48	> 29.9	5.29	> 100	> 100	> 100	> 100	> 100	–	–	–	–	–	–	–	–	–	–
Cn1c(NCC(O)CN2CCCC2)cc(=O)n(C)c1=O (stereo unspecified)	> 100	> 100	> 100	> 100	> 100	> 100	> 100	> 100	> 100	> 100	> 100	> 100	> 100	76.2	> 100	> 100	> 100	> 100	> 100	> 100
Clc1ccc(-c2cc(-c3ccccc3)nc(NCCNc3ccnc4cc(Cl)ccc34)n2)cc1	3.25	3.26	3.27	3.08	3.66	3.34	3.3	3.8	3.73	2.86	1.68	1.67	1.77	1.58	1.68	1.6	1.71	1.81	1.72	1.38
COc1cc(/C=C/C(=O)N2CCN(C(=O)c3cc(OC)c(OC)c(OC)c3)CC2)ccc1OCCCOc1cc2c(cc1OC)C(=O)N1CCC[C@H]1C=N2	0.434	12.8	0.343	0.642	0.476	4.56	0.319	4.03	0.636	6.56	0.154	0.34	0.178	0.241	0.19	0.794	0.175	0.284	0.109	1.98
O=C1c2ccccc2-c2c1c1ccccc1c(=O)n2CCCNCCCCNCCCN1C(=O)c2ccccc2C2C(=O)c3ccccc3C21 (stereo unspecified)	2.04	8.75	2.83	1.46	1.61	1.05	35	1.42	1.9	1.85	0.854	0.0766	0.805	0.726	0.681	0.358	5.27	0.238	0.0361	0.691
CCOc1cccc(-c2nc(N)nc(Nc3ccccc3SSc3ccccc3Nc3nc(N)nc(-c4cccc(OCC)c4)n3)n2)c1	> 100	> 100	> 100	> 100	> 100	> 100	> 100	> 100	> 100	3.16	4.97	55.8	8.1	> 100	35.8	3.56	5.63	3.84	4.97	1.68
Clc1ccc(OCc2nnc3n2N=C(c2ccc(Cl)cc2Cl)CS3)cc1	46.2	51.8	59.8	43.2	86.7	52.9	58.6	40.2	69.2	34.5	22.8	16	22.4	16.3	26.3	20.5	19.8	17.4	27.8	14.8
O=C1c2cccc(NCCN=Cc3ccccc3O)c2C(=O)c2c(NCCN=Cc3ccccc3O)cccc21	9.37	1.93	2.87	2.65	2.18	8.39	2.86	1.46	1.08	3.06	2.77	0.298	1.16	0.163	0.46	1.87	1.01	0.349	0.279	0.596
O=C(O)c1ccc(C(=O)O)c(C(=O)Nc2ccc3c(c2)C(=O)c2ccccc2-3)c1	> 100	> 100	> 100	> 100	> 100	> 100	> 100	> 100	> 100	> 100	–	–	–	–	–	–	–	–	–	–
COc1ccc(/C=C2\C=C(c3ccccc3)N(CCc3ccccc3)C2=O)cc1OC	49.9	48.9	> 100	6.28	> 100	54	61.9	26.5	57.2	20.6	12.4	8.92	4.78	1.89	17.3	10.4	10.2	8.18	4.18	4.35
CCN(CC)C1CCC(Nc2c(C(C)=O)cnc3ccc(-c4ccc(O)c(Cl)c4)cc23)CC1 (stereo unspecified)	5.89	3.51	10.5	5.33	40.7	> 47.2	16.9	12.2	1.42	> 36.8	1.91	1.64	0.651	0.152	10.7	1.82	0.941	0.487	0.229	0.425
CC(=O)OC1CC2C3CCC4C[C@@H](NC(=O)C=C(C)C)CC[C@]4(C)C3CC[C@]2(C)[C@H]1C(C)N(C)C (stereo partly specified)	11.1	1.47	4.82	6.51	3.14	11.3	4.53	3.4	5.84	2.95	4.21	0.376	2.17	2	1.51	2.25	2.04	1.58	1.71	0.949
CC1(C)[C@@H](OC(=O)CCC(=O)O)CC[C@]2(C)[C@H]3C(=O)C=C4[C@@H]5C[C@@](C)(C(=O)O)CC[C@]5(C)CC[C@@]4(C)[C@]3(C)CC[C@@H]12	83.3	130	98.8	83.5	–	84.8	128	143	136	81.6	51.1	56.1	58.2	55	–	52.9	90.8	55.7	54.7	60.1
CN1C/C=C/CCOc2cccc(c2)-c2ccnc(n2)Nc2cccc(c2)C1	0.21	0.416	0.153	0.184	0.0442	0.666	0.179	0.264	1.17	0.0849	0.0398	0.0376	0.0366	0.039	0.0204	0.0501	0.0469	0.0425	0.0309	0.0251
CC(=O)N1N=C2/C(=C/c3ccc(Cl)cc3)CC(C)CC2C1c1ccc(Cl)cc1 (stereo unspecified)	34.2	91.5	> 100	65.3	24.5	92.7	76.2	73.4	54.2	30.5	17	21.7	30.9	18.4	11.8	21.5	23.6	21.5	19.2	15.1
Cc1cc(C(C)(C)C)cc(CNC2CCCCC2)c1O	30	33.7	43.4	26	31.5	31.4	27.8	30.3	32.3	28.2	–	–	–	–	–	–	–	–	–	–
CN(C)c1ccc(/C=C/C2=[N+](C)c3ccccc3C2(C)C)cc1	12.6	2.53	11.7	20.6	2.07	20	13.1	18.3	8.11	83.3	0.467	0.293	0.467	2.47	0.505	0.508	0.662	0.5	0.382	2.61
CCCCCCCCC(=O)OCC(CS[As](C)C)OC(=O)CCCCCCCC (stereo unspecified)	19.1	17.3	0.652	23.5	24.8	19	0.708	25.9	8.2	> 39.9	4.78	1.51	0.196	5.44	0.557	2.45	0.0531	3.53	0.477	3.46
O=C(c1ccco1)c1c(C(F)(F)F)n([O-])c2ccc(Cl)cc2[n+]1=O	0.73	> 100	7.66	5.18	12.8	2.12	21.3	3.18	–	2.98	0.109	0.359	1.9	1.9	1.39	0.561	5.86	1.61	0.443	1.57
CC(C)(C)c1c2c(c(C(C)(C)C)c3c1OCN(Cc1ccccc1)C3)OCN(Cc1ccccc1)C2	39.4	37.6	> 100	> 100	26.6	41.5	43.1	35.6	61.6	35.4	–	–	–	–	–	–	–	–	–	–
